Assay results reported in ChEMBL document CHEMBL5252541, “Repurposing antipsychotic drugs into antifungal agents: Synergistic combinations of azoles and bromperidol derivatives in the treatment of various fungal infections” (Eur J Med Chem, 2017).
In brackets after ≈: the same amount, converted by molar mass.

Key:
Candida albicans [1] = assay: Antifungal activity against Candida albicans ATCC 64124 measured after 48 hrs by broth microdilution analysis; type: functional
Candida albicans [2] = assay: Antifungal activity against Candida albicans ATCC 10231 measured after 48 hrs by broth microdilution analysis; type: functional
Candida albicans [3] = assay: Synergistic antifungal activity against Candida albicans ATCC 10231 assessed as compound MIC measured after 48 hrs in presence of fluconazole by checkboard based microplate reader analysis; type: functional
Candida albicans [4] = assay: Synergistic antifungal activity against Candida albicans ATCC 64124 assessed as compound MIC measured after 48 hrs in presence of posaconazole by checkboard based microplate reader analysis; type: functional
Candida albicans [5] = assay: Synergistic antifungal activity against Candida albicans ATCC 10231 assessed as compound MIC measured after 48 hrs in presence of posaconazole by checkboard based microplate reader analysis; type: functional
Candida albicans [6] = assay: Synergistic antifungal activity against Candida albicans ATCC 64124 assessed as compound MIC measured after 48 hrs in presence of ketoconazole by checkboard based microplate reader analysis; type: functional
Candida albicans [7] = assay: Synergistic antifungal activity against Candida albicans ATCC 10231 assessed as compound MIC measured after 48 hrs in presence of ketoconazole by checkboard based microplate reader analysis; type: functional
Candida albicans [8] = assay: Synergistic antifungal activity against Candida albicans ATCC 64124 assessed as compound MIC measured after 48 hrs in presence of itraconazole by checkboard based microplate reader analysis; type: functional
Candida albicans [9] = assay: Synergistic antifungal activity against Candida albicans ATCC 10231 assessed as compound MIC measured after 48 hrs in presence of itraconazole by checkboard based microplate reader analysis; type: functional
Candida albicans [10] = assay: Synergistic antifungal activity against Candida albicans ATCC 64124 assessed as compound MIC measured after 48 hrs in presence of fluconazole by checkboard based microplate reader analysis; type: functional
Candida albicans [11] = assay: Antifungal activity against Candida albicans ATCC MYA-1237 measured after 48 hrs by broth microdilution analysis; type: functional
Nakaseomyces glabratus [12] = assay: Antifungal activity against Candida glabrata ATCC 2001 measured after 48 hrs by broth microdilution analysis; type: functional
Candida albicans [13] = assay: Synergistic antifungal activity against Candida albicans ATCC 10231 assessed as compound MIC measured after 48 hrs in presence of voriconazole by checkboard based microplate reader analysis; type: functional
Candida albicans [14] = assay: Synergistic antifungal activity against Candida albicans ATCC 64124 assessed as compound MIC measured after 48 hrs in presence of voriconazole by checkboard based microplate reader analysis; type: functional
Candida albicans [15] = assay: Additive antifungal activity against Candida albicans ATCC 10231 assessed as fractional inhibitory concentration index measured for 72 hrs in presence of fluconazole; type: functional
Candida albicans [16] = assay: Additive antifungal activity against Candida albicans ATCC 64124 assessed as fractional inhibitory concentration index measured for 72 hrs in presence of fluconazole; type: functional
Candida albicans [17] = assay: Additive antifungal activity against Candida albicans ATCC 10231 assessed as fractional inhibitory concentration index measured for 72 hrs in presence of itraconazole; type: functional
Candida albicans [18] = assay: Additive antifungal activity against Candida albicans ATCC 64124 assessed as fractional inhibitory concentration index measured for 72 hrs in presence of itraconazole; type: functional
Candida albicans [19] = assay: Synergistic antifungal activity against Candida albicans ATCC 64124 assessed as fractional inhibitory concentration index measured for 72 hrs in presence of posaconazole; type: functional
Candida albicans [20] = assay: Partial synergistic antifungal activity against Candida albicans ATCC 10231 assessed as fractional inhibitory concentration index measured for 72 hrs in presence of voriconazole; type: functional
Candida albicans [21] = assay: Partial synergistic antifungal activity against Candida albicans ATCC 64124 assessed as fractional inhibitory concentration index measured for 72 hrs in presence of voriconazole; type: functional
Candida albicans [22] = assay: Partial synergistic antifungal activity against Candida albicans ATCC 10231 assessed as fractional inhibitory concentration index measured for 72 hrs in presence of ketoconazole; type: functional
Candida albicans [23] = assay: Partial synergistic antifungal activity against Candida albicans ATCC 64124 assessed as fractional inhibitory concentration index measured for 72 hrs in presence of ketoconazole; type: functional
Candida albicans [24] = assay: Antifungal activity against Candida albicans ATCC MYA-1003 measured after 48 hrs by broth microdilution analysis; type: functional
Candida albicans [25] = assay: Antifungal activity against Candida albicans ATCC MYA-2310 measured after 48 hrs by broth microdilution analysis; type: functional
Candida albicans [26] = assay: Antifungal activity against Candida albicans ATCC MYA-2876 measured after 48 hrs by broth microdilution analysis; type: functional
Candida albicans [27] = assay: Antifungal activity against Candida albicans ATCC 90819 measured after 48 hrs by broth microdilution analysis; type: functional
Aspergillus terreus [28] = assay: Antifungal activity against Aspergillus terreus ATCC MYA-3633 measured after 48 hrs by broth microdilution analysis; type: functional
Candida albicans [29] = assay: Additive antifungal activity against Candida albicans ATCC MYA-1237 assessed as fractional inhibitory concentration index measured for 72 hrs in presence of posaconazole; type: functional
Candida albicans [30] = assay: Additive antifungal activity against Candida albicans ATCC MYA-1237 assessed as fractional inhibitory concentration index measured for 72 hrs in presence of voriconazole; type: functional
Candida albicans [31] = assay: Additive antifungal activity against Candida albicans ATCC MYA-2310 assessed as fractional inhibitory concentration index measured for 72 hrs in presence of voriconazole; type: functional
Candida albicans [32] = assay: Additive antifungal activity against Candida albicans ATCC MYA-2876 assessed as fractional inhibitory concentration index measured for 72 hrs in presence of voriconazole; type: functional
Nakaseomyces glabratus [33] = assay: Additive antifungal activity against Candida glabrata ATCC 2001 assessed as fractional inhibitory concentration index measured for 72 hrs in presence of posaconazole; type: functional
Nakaseomyces glabratus [34] = assay: Additive antifungal activity against Candida glabrata ATCC 2001 assessed as fractional inhibitory concentration index measured for 72 hrs in presence of voriconazole; type: functional
Aspergillus terreus [35] = assay: Additive antifungal activity against Aspergillus terreus ATCC MYA-3633 assessed as fractional inhibitory concentration index measured for 72 hrs in presence of posaconazole; type: functional
Aspergillus terreus [36] = assay: Additive antifungal activity against Aspergillus terreus ATCC MYA-3633 assessed as fractional inhibitory concentration index measured for 72 hrs in presence of voriconazole; type: functional
Candida albicans [37] = assay: Partial synergistic antifungal activity against Candida albicans ATCC MYA-1003 assessed as fractional inhibitory concentration index measured for 72 hrs in presence of posaconazole; type: functional
Candida albicans [38] = assay: Partial synergistic antifungal activity against Candida albicans ATCC MYA-1003 assessed as fractional inhibitory concentration index measured for 72 hrs in presence of voriconazole; type: functional
Candida albicans [39] = assay: Synergistic antifungal activity against Candida albicans ATCC 90819 assessed as fractional inhibitory concentration index measured for 72 hrs in presence of voriconazole; type: functional
Candida albicans [40] = assay: Partial synergistic antifungal activity against Candida albicans MYA-2876 assessed as fractional inhibitory concentration index measured for 72 hrs in presence of posaconazole; type: functional
Candida albicans [41] = assay: Partial synergistic antifungal activity against Candida albicans ATCC 90819 assessed as fractional inhibitory concentration index measured for 72 hrs in presence of posaconazole; type: functional
Candida albicans [42] = assay: Additive antifungal activity against Candida albicans MYA-1003 assessed as fractional inhibitory concentration index measured for 72 hrs in presence of voriconazole
Candida albicans [43] = assay: Synergistic antifungal activity against Candida albicans ATCC 64124 assessed as ketoconazole MIC measured after 48 hrs by checkboard based microplate reader analysis; type: functional
Candida albicans [44] = assay: Synergistic antifungal activity against Candida albicans ATCC 10231 assessed as ketoconazole MIC measured after 48 hrs by checkboard based microplate reader analysis; type: functional
Candida albicans [45] = assay: Additive antifungal activity against Candida albicans ATCC 10231 assessed as fractional inhibitory concentration index measured for 72 hrs in presence of ketoconazole; type: functional
Candida albicans [46] = assay: Synergistic antifungal activity against Candida albicans ATCC 64124 assessed as itraconazole MIC measured after 48 hrs by checkboard based microplate reader analysis; type: functional
Candida albicans [47] = assay: Synergistic antifungal activity against Candida albicans ATCC 10231 assessed as itraconazole MIC measured after 48 hrs by checkboard based microplate reader analysis; type: functional

In the case of O=C(CCCN1CCC(O)(c2ccc(Br)cc2)CC1)c1ccc(Cl)cc1, the MIC (Candida albicans [1]) is reported as > 32 µg/mL, the MIC (Candida albicans [2]) is reported as > 32 µg/mL and the MIC (Candida albicans [3]) is reported as 16 µg/mL. The MIC (Candida albicans [4]) was 4 µg/mL, the MIC (Candida albicans [5]) was 4 µg/mL and the MIC (Candida albicans [6]) was 0.5 µg/mL. The MIC (Candida albicans [7]) was 16 µg/mL, the MIC (Candida albicans [8]) was > 32 µg/mL and the MIC (Candida albicans [9]) was > 32 µg/mL. For the same compound, the MIC (Candida albicans [10]) was > 32 µg/mL, the MIC (Candida albicans [11]) was > 32 µg/mL and the MIC (Nakaseomyces glabratus [12]) was > 32 µg/mL. For the same compound, the MIC (Candida albicans [13]) was 16 µg/mL, the MIC (Candida albicans [14]) was 16 µg/mL and the “fractional inhibitory concentration index (FICI)” value (Candida albicans [15]) was 1.5. The “fractional inhibitory concentration index (FICI)” value (Candida albicans [16]) was 2, the “fractional inhibitory concentration index (FICI)” value (Candida albicans [17]) was 2 and the “fractional inhibitory concentration index (FICI)” value (Candida albicans [18]) was 2. The “fractional inhibitory concentration index (FICI)” value (Candida albicans [19]) was 0.19, the “fractional inhibitory concentration index (FICI)” value (Candida albicans [20]) was 0.75 and the “fractional inhibitory concentration index (FICI)” value (Candida albicans [21]) was 0.63. The “fractional inhibitory concentration index (FICI)” value (Candida albicans [22]) was 0.75, the “fractional inhibitory concentration index (FICI)” value (Candida albicans [23]) was 0.52 and the MIC (Candida albicans [24]) was > 32 µg/mL. The MIC (Candida albicans [25]) was > 32 µg/mL, the MIC (Candida albicans [26]) was > 32 µg/mL and the MIC (Candida albicans [27]) was > 32 µg/mL. The MIC (Aspergillus terreus [28]) was > 32 µg/mL, the “fractional inhibitory concentration index (FICI)” value (Candida albicans [29]) was 1.02 and the “fractional inhibitory concentration index (FICI)” value (Candida albicans [30]) was 1. For the same compound, the “fractional inhibitory concentration index (FICI)” value (Candida albicans [31]) was 1, the “fractional inhibitory concentration index (FICI)” value (Candida albicans [32]) was 1 and the “fractional inhibitory concentration index (FICI)” value (Nakaseomyces glabratus [33]) was 2. The “fractional inhibitory concentration index (FICI)” value (Nakaseomyces glabratus [34]) was 2, the “fractional inhibitory concentration index (FICI)” value (Aspergillus terreus [35]) was 2 and the “fractional inhibitory concentration index (FICI)” value (Aspergillus terreus [36]) was 2. For the same compound, the “fractional inhibitory concentration index (FICI)” value (Candida albicans [37]) was 0.53, the “fractional inhibitory concentration index (FICI)” value (Candida albicans [38]) was 0.75 and the “fractional inhibitory concentration index (FICI)” value (Candida albicans [39]) was 0.31. For the same compound, the “fractional inhibitory concentration index (FICI)” value (Candida albicans [40]) was 0.52, the “fractional inhibitory concentration index (FICI)” value (Candida albicans [41]) was 0.52 and the “fractional inhibitory concentration index (FICI)” value (Candida albicans [42]) was 0.75.
With CC(=O)N1CCN(c2ccc(OCC3COC(Cn4ccnc4)(c4ccc(Cl)cc4Cl)O3)cc2)CC1 (stereo unspecified) [KETOCONAZOLE] the MIC (Candida albicans [1]) was 8 µg/mL (≈ 15.1 µM), the MIC (Candida albicans [2]) was 1 µg/mL (≈ 1.88 µM) and the MIC (Candida albicans [43]) was 4 µg/mL. The MIC (Candida albicans [44]) was 0.5 µg/mL and the “fractional inhibitory concentration index (FICI)” value (Candida albicans [45]) was 2.
For CCC(C)n1ncn(-c2ccc(N3CCN(c4ccc(OCC5COC(Cn6cncn6)(c6ccc(Cl)cc6Cl)O5)cc4)CC3)cc2)c1=O (stereo unspecified) [ITRACONAZOLE], the MIC (Candida albicans [1]) was > 32 µg/mL, the MIC (Candida albicans [2]) was 1 µg/mL (≈ 1.42 µM) and the MIC (Candida albicans [46]) was > 32 µg/mL. The MIC (Candida albicans [47]) was 0.25 µg/mL.
